Values joined by “and” are separate entries in the source; they are usually repeats but may differ in a detail not shown here. Equal values may be shown once. Read-outs that look alike come from different tables or passages of the source. Positions of bridges follow the written chain, without caps; N, C: chain ends. Residues, ends and D or L forms follow the SMILES beside them.
What was measured:
[1] = test system: total NaV current in wild-type DRG neurons; assay: Persistent NaV current, wild-type littermate DRG neurons; assay type: cell-based, mouse; details: ExTxA 30 nM; wildtype; mean ± SEM, n = 6
NaV1.7/TMEM233 [2] = target: T1, NaV1.7/TMEM233 (Homo sapiens, UniProt B4DJY2+Q15858); assay type: cell-based
Description: Current-voltage (IV) curves were determined in HEK-NaV1.7 cells, in the absence and presence of TMEM233, from a series of step pulses (500 ms) ranging from −110 to +55 mV (5 mV increments, repetition interval 5 s) before and after incubation with ExTxA (1 μM) from a holding potential of −90 mV. Currents were converted to conductance (G) using G = I/(V − Vrev), with Vrev being the reversal potential, plotted against voltage and fitted with a Boltzmann equation to obtain GV (conductance-voltage) curves. Voltage dependence of steady-state fast inactivation was determined by a subsequent 10 ms pulse to −20 mV immediately following the 500 ms depolarization step detailed above to assess the available non-inactivated channels.

[3] = test system: NaV currents in ND7/23 cells; assay: Persistent current, ND7/23 cells; assay type: cell-based; details: ExTxA 1 µM; individual cells
NaV1.7/TMEM233 [4] = target: T1, NaV1.7/TMEM233; assay type: cell-based; details: extracellular ExTxA
Description: To determine recovery from fast inactivation, a 20 ms pulse to 0 mV from a holding potential of −90 mV was used to induce fast inactivation. A subsequent recovery period, ranging from 1 ms to 2216 ms in 50% increments at −90 mV, was followed by a last 20 ms test pulses to 0 mV to determine the time-dependence of recovery from fast inactivation. The proportion of available channels was determined by normalizing peak currents from the last to the first pulse. A two-phase exponential equation was fit to the normalized current, plotted as a function of time, to determine the time constants τ1 and τ2 of recovery from fast inactivation.

[5] = test system: NaV1.7Advill knockout mice; assay: Nocifensive behaviors after intraplantar injection, NaV1.7Advill mice; assay type: in vivo, mouse; details: i.pl. ExTxA 10 nM
Excerpt: Tmem233^Cre animals were generated and genotyped as previously described, with a Kozak-Cre-pA cassette replacing the ATG start codon of the murine Tmem233 gene to produce a functional knockout in homozygous animals. NaV1.7^Advill mice lacking functional NaV1.7 in all sensory neurons were generated and genotyped as previously described[33] by crossing Advillin-Cre mice with floxed Scn9a animals in which loxP sites were inserted in introns flanking exons 14 and 15[34],[35]. NaV1.9^−/− mice and NaV1.8^Cre/Cre mice, in which Cre recombinase substitutes the translational start-site of NaV1.8, were generated and sequenced as previously described[34],[36],[37].
(§1) Nocifensive responses to intraplantar administration of ExTxA (5–10 nM) were assessed as previously described. In brief, ExTxA was diluted in sterile saline/0.1% BSA and administered by an intraplantar injection (40 μL) into a single hind paw of Tmem233^Cre/Cre, NaV1.7^Advill and wild-type littermate controls. Pain behaviors, consisting of paw licks or flinches, were counted from video recordings by a blinded investigator for up to 60 min following injection.

hNaV1.7 = assay: Persistent current, Xenopus oocytes expressing hNaV1.7 (two-electrode voltage clamp); assay type: cell-based, human; details: ExTxA 1 µM
Description: Human NaV1.7 and TMEM233 genes cloned into pcDNA3.1 plasmid were linearized with NotI restriction enzyme and used as template for cRNA synthesis using T7 polymerase (mMessage mMachine Kit; Life Technologies). Stage V/VI oocytes were injected with 5–20 ng total RNA, then incubated at 17 °C for 1–3 days in 50% Leibovitz’s L-15 medium (Gibco), supplemented with 25 µg/mL gentamicin, 25 µg/mL streptomycin, and 2.5% fetal horse serum. Two-electrode voltage clamp (Axoclamp 900 A amplifier; Axon Instruments) were performed at room temperature in ND96 solution (in mM: 96 NaCl, 2 KCl, 1 MgCl2, 1.8 CaCl2, 5 HEPES; pH 7.4 with NaOH) with a ∼40 μL recording chamber. In experiments where ExTxA was added, solutions were supplemented with 0.05% fatty-acid free bovine serum albumin. Borosilicate glass microelectrodes had resistances of 0.2–0.8 MΩ when backfilled with 3 M KCl. Data were digitized at 20 kHz and filtered at 2 kHz using pCLAMP 11 software (Digidata 1550B; Axon Instruments).
ExTxA activity was assayed at 1 µM, analyzing the current from a 50 ms step to −10 mV every 10 s, from a holding volage of −80 mV. For all other voltage protocols, oocytes were held at −90 mV. Activation curves were obtained by measuring peak currents during steps from −100 mV to +60 mV in +10 mV increments applied every 10 s, with G/Gmax plot between −80 mV and +10 mV. […]

[6] = test system: Tmem233Cre/Cre knockout mice; assay: Nocifensive behaviors after intraplantar injection, Tmem233Cre/Cre mice; assay type: in vivo, mouse
Description: as §1

hNaV1.7/TMEM233 = assay: Persistent current, CHO hNaV1.7/TMEM233; assay type: cell-based, human; details: ExTxA 1 µM; hNaV1.7/TMEM233; mean ± SEM, n = 16
NaV1.7/TRARG1 = NaV1.7/TRARG1 (Homo sapiens, UniProt Q15858+Q8IXB3); assay type: cell-based
[7] = individual cells, paired with buffer

Chain of NaV1.7/TRARG1 (Q07699 19-218): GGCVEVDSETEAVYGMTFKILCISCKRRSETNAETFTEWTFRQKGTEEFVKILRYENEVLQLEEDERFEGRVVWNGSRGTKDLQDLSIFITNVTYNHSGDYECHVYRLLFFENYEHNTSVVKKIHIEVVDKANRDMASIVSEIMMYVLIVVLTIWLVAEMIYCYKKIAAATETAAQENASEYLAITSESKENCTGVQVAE
Chain of NaV1.7/TRARG1 (Q15858 whole entry): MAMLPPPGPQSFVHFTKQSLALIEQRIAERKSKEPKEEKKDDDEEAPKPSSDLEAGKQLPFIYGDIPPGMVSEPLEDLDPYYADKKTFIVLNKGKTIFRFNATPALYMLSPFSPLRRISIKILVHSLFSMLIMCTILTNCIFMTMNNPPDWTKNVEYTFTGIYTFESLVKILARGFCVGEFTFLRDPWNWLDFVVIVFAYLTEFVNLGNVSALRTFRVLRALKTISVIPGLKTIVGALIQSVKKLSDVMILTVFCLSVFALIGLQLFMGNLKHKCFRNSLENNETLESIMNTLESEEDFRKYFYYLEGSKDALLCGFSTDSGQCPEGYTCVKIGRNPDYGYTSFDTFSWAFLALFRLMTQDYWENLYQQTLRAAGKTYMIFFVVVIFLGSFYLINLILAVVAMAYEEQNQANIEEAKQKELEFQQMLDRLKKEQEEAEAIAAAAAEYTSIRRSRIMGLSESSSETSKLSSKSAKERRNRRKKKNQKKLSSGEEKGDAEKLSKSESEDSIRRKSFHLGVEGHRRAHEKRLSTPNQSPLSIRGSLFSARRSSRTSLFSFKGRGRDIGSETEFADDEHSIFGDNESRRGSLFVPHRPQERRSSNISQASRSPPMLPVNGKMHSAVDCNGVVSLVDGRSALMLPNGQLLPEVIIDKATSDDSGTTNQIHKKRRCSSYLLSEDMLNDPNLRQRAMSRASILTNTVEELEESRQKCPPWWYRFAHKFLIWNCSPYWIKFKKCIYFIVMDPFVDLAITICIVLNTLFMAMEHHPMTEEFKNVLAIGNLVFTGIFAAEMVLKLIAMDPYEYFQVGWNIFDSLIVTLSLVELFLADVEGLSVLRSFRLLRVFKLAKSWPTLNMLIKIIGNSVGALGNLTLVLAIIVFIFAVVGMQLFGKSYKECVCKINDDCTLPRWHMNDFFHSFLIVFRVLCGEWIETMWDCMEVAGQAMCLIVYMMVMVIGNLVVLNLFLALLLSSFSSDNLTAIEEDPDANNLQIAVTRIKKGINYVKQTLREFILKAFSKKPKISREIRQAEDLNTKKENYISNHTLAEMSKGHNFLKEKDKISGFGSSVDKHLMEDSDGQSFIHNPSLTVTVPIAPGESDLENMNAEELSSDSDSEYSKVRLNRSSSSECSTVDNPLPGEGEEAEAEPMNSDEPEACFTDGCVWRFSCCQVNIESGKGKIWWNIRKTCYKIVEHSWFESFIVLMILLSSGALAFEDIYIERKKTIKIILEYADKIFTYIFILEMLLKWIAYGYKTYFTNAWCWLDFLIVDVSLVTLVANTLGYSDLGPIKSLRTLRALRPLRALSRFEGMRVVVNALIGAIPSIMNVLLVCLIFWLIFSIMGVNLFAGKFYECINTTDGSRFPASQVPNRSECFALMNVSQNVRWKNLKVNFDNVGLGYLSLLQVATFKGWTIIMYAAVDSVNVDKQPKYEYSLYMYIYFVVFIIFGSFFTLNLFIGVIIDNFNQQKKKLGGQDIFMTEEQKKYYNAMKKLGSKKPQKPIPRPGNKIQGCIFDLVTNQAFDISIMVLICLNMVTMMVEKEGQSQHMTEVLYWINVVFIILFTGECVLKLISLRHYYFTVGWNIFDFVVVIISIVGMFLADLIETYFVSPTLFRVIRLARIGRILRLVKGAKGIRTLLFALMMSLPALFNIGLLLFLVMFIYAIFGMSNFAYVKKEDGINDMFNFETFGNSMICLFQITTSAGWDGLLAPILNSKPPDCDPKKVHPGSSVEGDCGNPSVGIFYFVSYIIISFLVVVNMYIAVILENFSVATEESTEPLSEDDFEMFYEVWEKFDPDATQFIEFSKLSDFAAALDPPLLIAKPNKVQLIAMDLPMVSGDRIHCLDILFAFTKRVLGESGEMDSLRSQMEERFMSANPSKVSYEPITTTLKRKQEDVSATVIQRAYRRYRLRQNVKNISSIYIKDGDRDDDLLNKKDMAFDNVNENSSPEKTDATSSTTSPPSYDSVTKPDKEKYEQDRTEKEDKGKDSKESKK
Chain of NaV1.7/TRARG1 (Q8IXB3 whole entry): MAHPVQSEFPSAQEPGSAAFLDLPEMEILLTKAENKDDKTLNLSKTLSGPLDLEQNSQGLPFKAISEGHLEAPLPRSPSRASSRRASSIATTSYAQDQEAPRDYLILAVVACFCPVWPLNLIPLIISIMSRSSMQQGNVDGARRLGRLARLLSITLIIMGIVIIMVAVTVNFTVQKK

SMILES: CC[C@H](C)[C@@H]1NC(=O)[C@H](CCCNC(=N)N)NC(=O)[C@H](Cc2ccccc2)NC(=O)[C@H](CC(C)C)NC(=O)[C@H](CO)NC(=O)[C@@H]2CSSC[C@@H]3NC(=O)[C@H]([C@@H](C)O)NC(=O)[C@H](CSSC[C@H](NC(=O)[C@H](CCCNC(=N)N)NC(=O)[C@@H]4CCCN4C(=O)[C@@H](N)CC(C)C)C(=O)N[C@@H](CC(=O)O)C(=O)N[C@@H](CO)C(=O)N4CCC[C@H]4C(=O)N[C@@H](Cc4ccccc4)C(=O)N2)NC(=O)[C@H](CCCCN)NC(=O)[C@H](CC(=O)O)NC(=O)CNC(=O)[C@H](CSSC[C@@H](C(=O)N[C@H](C(=O)N2CCC[C@H]2C(=O)N[C@@H](CC(=O)O)C(=O)N[C@H](C(=O)O)C(C)C)C(C)C)NC(=O)[C@H](CC(C)C)NC(=O)CNC(=O)[C@H](Cc2ccccc2)NC(=O)[C@H]([C@@H](C)CC)NC(=O)[C@@H]2CCCN2C(=O)[C@H](CC(C)C)NC(=O)[C@@H]2CCCN2C(=O)[C@H](C(C)C)NC3=O)NC(=O)[C@H](CC(C)C)NC(=O)CNC1=O [ExTxA, excelsatoxin A] (H-LPRCDSPFCSLFRIGLCGDKCTCVPLPIFGLCVPDV-OH; disulfide 4-21, 9-23, 17-32)
- ExTxA-induced persistent current (I40ms/Ipeak; nA) in DRG neurons [1]: 0.573 ± 0.086
- depolarizing shift in the voltage-dependence of fast inactivation (NaV1.7/TMEM233 [2]): 18.0 mV
- hyperpolarizing shift in the voltage-dependence of activation (NaV1.7/TMEM233 [2]): 11.6 mV
- V50 of Activation (NaV1.7/TMEM233 [2]; ExTxA 1 µM, NaV1.7/TMEM233, mean ± SEM, n = 7, control -24.31 ± 1.11): -35.92 ± 1.00 mV
- V50 of Inactivation (NaV1.7/TMEM233 [2]; ExTxA 1 µM, NaV1.7/TMEM233, mean ± SEM, n = 8, control -67.77 ± 1.12): -49.80 ± 3.20 mV
- V50 of Activation, mean of differences (B - A) (NaV1.7/TMEM233 [2]; ExTxA vs. buffer, paired t test, 7 pairs): -11.61
- V50 of Inactivation, mean of differences (B - A) (NaV1.7/TMEM233 [2]; ExTxA vs. buffer, paired t test, 8 pairs): 17.97
- V50 of Activation (NaV1.7/TMEM233 [2]; [7]): -34.91 and -38.74 and -38.17 and -35.28 and -37.07 and -36.44 and -30.84
- V50 of Inactivation (NaV1.7/TMEM233 [2]; [7]): -45.67 and -44.27 and -43.05 and -47.34 and -66.38 and -46.52 and -43.25 and -61.92
- persistent current (I40 ms/Ipeak) [3]: 0.0148 and -0.04643 and -0.01725 and -0.02481 and 0.06313 and -0.01347 and 0.009823 and -0.02206 and -0.05173 and 0.0293 and -0.02358
- time constants of recovery from inactivation (NaV1.7/TMEM233 [4]): a decrease in the time constants of recovery from inactivation
- Difference between means (B - A), wildtype minus Scn9a-/- [5]: 279.3 ± 22.82
- nocifensive responses in knockout mice [5]: abolished
- cumulative flinches (60 min) ([5]; 40 μL, NaV1.7Advill, mean, n = 4): 40.0 ± 6.5 and 40
- cumulative flinches (60 min) ([5]; NaV1.7Advill (Scn9a-/-), individual animals): 32 and 43 and 57 and 28
- Xenopus oocyte persistent current (I40 ms/Ipeak) (hNaV1.7; hNaV1.7 alone, mean ± SEM, n = 6): 0.081 ± 0.012
- persistent current (I40 ms/Ipeak) (hNaV1.7; individual oocytes): 0.01056 and 0.002122 and 0.005805 and 0.01324 and 0.01132 and 0.02838 and 0.05496 and 0.01837 and -0.00648 and -0.01247 and 0.02865
- nocifensive behaviors, 0-40 min combined (Fig. 3g) ([6]; TMEMCre KO, 0-40 min, individual animals, one line each (n = 16)): 8 and 6 and 329 and 151 and 352 and 36 and 124 and 41 and 45 and 71 and 136 and 66 and 142 and 96
- nocifensive behaviors, 0-40 min combined, mean (Fig. 3g) ([6]; TMEMCre KO, 0-40 min, mean, n = 16): 115.9
- ExTxA-induced pain behaviours (cumulative paw licks and flinches over 40 min) ([6]; i.pl. ExTxA 10 nM, Tmem233Cre KO, mean ± SEM, n = 16): 115.9 ± 25.3
- ExTxA-induced nocifensive behaviors in Tmem233Cre/Cre KO mice ([6]; mouse, in vivo): significantly reduced
- nocifensive behaviors, 0-40 min combined, difference between means (B - A) ± SEM (Fig. 3g) ([6]; mouse, in vivo): -118.4 ± 37.67
- CHO cells persistent current (I40 ms) (hNaV1.7/TMEM233): -2.010 ± 0.277 nA
- LogEC50 (NaV1.7/TRARG1; Nav1.7/TRARG1, 95% CI -6.511 to -5.182, Fig 4g): -5.623
- HillSlope (NaV1.7/TRARG1; Nav1.7/TRARG1, Fig 4g): 0.6926
- Top (NaV1.7/TRARG1; Nav1.7/TRARG1, best-fit, constraint Top < 1, Fig 4g): 1
- ExTxA-induced currents with TRARG1 (NaV1.7/TRARG1; co-expression with NaV1.7): resulted in ExTxA-induced persistent currents

From article PMC10147923, “Pain-causing stinging nettle toxins target TMEM233 to modulate NaV1.7 function” (Nature Communications, 2023)
